Measurements as given in the supplement of paper PMC12406974.

Columns and labels:
Experiment in all cases: maximum observed lethal fraction; higher = more cell death
U2OS BAX/BAK1 DKO = system: U2OS BAX/BAK1 DKO
U2OS BCL2L12-KO = system: U2OS BCL2L12-KO
U2OS PTBP1-KO = system: U2OS PTBP1-KO
U2OS = system: U2OS
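Further: FLICK assay: SYTOX Green fluorescence of dead cells tracked over time after drugging in 96-well plates, with total cell counts taken from Triton X-100 lysed wells.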

Row | Compound | maximum observed lethal fraction (U2OS BAX/BAK1 DKO; 0.01 µM) | maximum observed lethal fraction (U2OS BAX/BAK1 DKO; 0.0316 µM) | maximum observed lethal fraction (U2OS BAX/BAK1 DKO; 0.1 µM) | maximum observed lethal fraction (U2OS BAX/BAK1 DKO; 0.316 µM) | maximum observed lethal fraction (U2OS BAX/BAK1 DKO; 1 µM) | maximum observed lethal fraction (U2OS BAX/BAK1 DKO; 3.16 µM) | maximum observed lethal fraction (U2OS BAX/BAK1 DKO; 10 µM) | maximum observed lethal fraction (U2OS BCL2L12-KO; 0.01 µM) | maximum observed lethal fraction (U2OS BCL2L12-KO; 0.0316 µM) | maximum observed lethal fraction (U2OS BCL2L12-KO; 0.1 µM) | maximum observed lethal fraction (U2OS BCL2L12-KO; 0.316 µM) | maximum observed lethal fraction (U2OS BCL2L12-KO; 1 µM) | maximum observed lethal fraction (U2OS BCL2L12-KO; 3.16 µM) | maximum observed lethal fraction (U2OS BCL2L12-KO; 10 µM) | maximum observed lethal fraction (U2OS PTBP1-KO; 0.01 µM) | maximum observed lethal fraction (U2OS PTBP1-KO; 0.0316 µM) | maximum observed lethal fraction (U2OS PTBP1-KO; 0.1 µM) | maximum observed lethal fraction (U2OS PTBP1-KO; 0.316 µM) | maximum observed lethal fraction (U2OS PTBP1-KO; 1 µM) | maximum observed lethal fraction (U2OS PTBP1-KO; 3.16 µM) | maximum observed lethal fraction (U2OS PTBP1-KO; 10 µM) | maximum observed lethal fraction (U2OS; 0.01 µM) | maximum observed lethal fraction (U2OS; 0.0316 µM) | maximum observed lethal fraction (U2OS; 0.1 µM) | maximum observed lethal fraction (U2OS; 0.316 µM) | maximum observed lethal fraction (U2OS; 1 µM) | maximum observed lethal fraction (U2OS; 3.16 µM) | maximum observed lethal fraction (U2OS; 10 µM) | maximum observed lethal fraction (U2OS BAX/BAK1 DKO; 31.6 µM) | maximum observed lethal fraction (U2OS BCL2L12-KO; 31.6 µM) | maximum observed lethal fraction (U2OS PTBP1-KO; 31.6 µM) | maximum observed lethal fraction (U2OS; 31.6 µM) | maximum observed lethal fraction (U2OS BAX/BAK1 DKO; 100 µM) | maximum observed lethal fraction (U2OS BAX/BAK1 DKO; 316 µM) | maximum observed lethal fraction (U2OS BCL2L12-KO; 100 µM) | maximum observed lethal fraction (U2OS BCL2L12-KO; 316 µM) | maximum observed lethal fraction (U2OS PTBP1-KO; 100 µM) | maximum observed lethal fraction (U2OS PTBP1-KO; 316 µM) | maximum observed lethal fraction (U2OS; 100 µM) | maximum observed lethal fraction (U2OS; 316 µM)
1 | CN[C@@H]1C[C@H]2O[C@@](C)([C@@H]1OC)n1c3ccccc3c3c4c(c5c6ccccc6n2c5c31)C(=O)NC4 [Staurosporine] | 0.104 | 0.113 | 0.125 | 0.121 | 0.125 | 0.136 | 0.254 | 0.437 | 0.593 | 0.936 | 0.877 | 0.736 | 0.725 | 0.894 | 0.476 | 0.77 | 0.93 | 0.878 | 0.737 | 0.781 | 0.864 | 0.508 | 0.709 | 0.903 | 0.819 | 0.71 | 0.642 | 0.811 |  |  |  |  |  |  |  |  |  |  |  | 
2 | CN(C)CC[C@H](CSc1ccccc1)Nc1ccc(S(=O)(=O)NC(=O)c2ccc(N3CCN(Cc4ccccc4-c4ccc(Cl)cc4)CC3)cc2)cc1[N+](=O)[O-] [ABT-737] |  | 0.0579 | 0.0557 | 0.0559 | 0.0569 | 0.0568 | 0.0722 |  | 0.0733 | 0.076 | 0.0912 | 0.127 | 0.28 | 0.596 |  | 0.0704 | 0.0736 | 0.0737 | 0.0836 | 0.13 | 0.38 |  | 0.0571 | 0.0649 | 0.0818 | 0.115 | 0.189 | 0.462 | 0.082 | 0.84 | 0.617 | 0.788 |  |  |  |  |  |  |  | 
3 | C=CC(=O)Nc1ccc(C(=O)Nc2[nH]nc3c2CN(C(=O)N[C@H](CN(C)C)c2ccccc2)C3(C)C)cc1 [YKL-5-124] |  | 0.0674 | 0.0739 | 0.0839 | 0.0802 | 0.0829 | 0.0948 |  | 0.0697 | 0.0761 | 0.0812 | 0.0841 | 0.0923 | 0.115 |  | 0.0724 | 0.0809 | 0.0854 | 0.0868 | 0.0884 | 0.1 |  | 0.0634 | 0.0827 | 0.0923 | 0.161 | 0.221 | 0.274 | 0.1 | 0.49 | 0.252 | 0.461 |  |  |  |  |  |  |  | 
4 | O=C(O)C1(C(=O)O)CCC1.[NH2-].[NH2-].[Pt+2] [Carboplatin] |  |  |  | 0.0602 | 0.0593 | 0.0612 | 0.0614 |  |  |  | 0.0652 | 0.0616 | 0.0672 | 0.0691 |  |  |  | 0.0634 | 0.0611 | 0.0647 | 0.0661 |  |  |  | 0.0493 | 0.052 | 0.0533 | 0.0546 | 0.0671 | 0.0714 | 0.0674 | 0.056 | 0.0722 | 0.0825 | 0.0762 | 0.342 | 0.0762 | 0.54 | 0.0693 | 0.517
5 | COc1cc([C@@H]2c3cc4c(cc3[C@@H](O[C@@H]3O[C@@H]5CO[C@@H](c6cccs6)O[C@H]5[C@H](O)[C@H]3O)[C@H]3COC(=O)[C@H]23)OCO4)cc(OC)c1O [Teniposide] |  | 0.0788 | 0.0806 | 0.0807 | 0.0902 | 0.106 | 0.205 |  | 0.0736 | 0.0745 | 0.0806 | 0.355 | 0.728 | 0.801 |  | 0.079 | 0.0821 | 0.0892 | 0.383 | 0.686 | 0.763 |  | 0.0732 | 0.0749 | 0.0834 | 0.373 | 0.714 | 0.804 | 0.299 | 0.968 | 0.815 | 0.867 |  |  |  |  |  |  |  | 
6 | CN(C)C/C=C/C(=O)Nc1ccc(C(=O)N2CCC[C@@H](Nc3ncc(Cl)c(-c4c[nH]c5ccccc45)n3)C2)cc1 [THZ531] | 0.061 | 0.0622 | 0.0635 | 0.0888 | 0.105 | 0.0957 | 0.188 | 0.0636 | 0.0649 | 0.0776 | 0.465 | 0.359 | 0.489 | 0.903 | 0.0612 | 0.0612 | 0.0684 | 0.17 | 0.346 | 0.314 | 0.836 | 0.049 | 0.0521 | 0.0575 | 0.271 | 0.325 | 0.46 | 0.923 |  |  |  |  |  |  |  |  |  |  |  | 
7 | CO[C@H]1C[C@@H]2CC[C@@H](C)[C@@](O)(O2)C(=O)C(=O)N2CCCC[C@H]2C(=O)O[C@H]([C@H](C)C[C@@H]2CC[C@@H](O)[C@H](OC)C2)CC(=O)[C@H](C)/C=C(\C)[C@@H](O)[C@@H](OC)C(=O)[C@H](C)C[C@H](C)/C=C/C=C/C=C/1C [Rapamycin] | 0.0624 | 0.0616 | 0.0646 | 0.0631 | 0.0613 | 0.0695 | 0.0695 | 0.0761 | 0.0732 | 0.0721 | 0.0738 | 0.0786 | 0.084 | 0.0965 | 0.0742 | 0.0686 | 0.0757 | 0.0711 | 0.0784 | 0.0724 | 0.0767 | 0.062 | 0.0603 | 0.0606 | 0.0645 | 0.061 | 0.0607 | 0.0674 |  |  |  |  |  |  |  |  |  |  |  | 
8 | CNCc1ccc(-c2[nH]c3cc(F)cc4c3c2CCNC4=O)cc1 [Rucaparib] |  |  | 0.0512 | 0.0548 | 0.0528 | 0.06 | 0.0652 |  |  | 0.065 | 0.0637 | 0.0652 | 0.0687 | 0.0753 |  |  | 0.0657 | 0.065 | 0.0647 | 0.0685 | 0.0766 |  |  | 0.0508 | 0.0538 | 0.0545 | 0.057 | 0.0608 | 0.0926 | 0.195 | 0.18 | 0.278 | 0.178 |  | 0.886 |  | 0.683 |  | 0.81 | 
